The text below walks through data of PubChem BioAssay (NCI).

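Method: 48-hour compound exposure of cells in 96-well plates, five concentrations, linear interpolation of endpoints. The concentration for 50% growth inhibition is given as GI50. TGI: total growth inhibition.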 Where only a bound is given, the exact number is not on record here.

Among the test systems are RPMI-8226 leukemia; SF-268 CNS; HCT-116 colon; KM12 colon; HT29 colon; LOX IMVI melanoma; SK-OV-3 ovarian; OVCAR-8 ovarian; SW-620 colon; COLO 205 colon.
Common to all, as to assay: inhibition of tumour cell growth, NCI panel, 48 h

Regarding `CCN(CC)c1ccc2c(c1)Nc1cc(=C(C#N)C#N)c3ccccc3c1=N2`, the TGI in the experiment with RPMI-8226 leukemia, with SF-268 CNS, with HCT-116 colon, with KM12 colon, with HT29 colon and with LOX IMVI melanoma was > 100 µM throughout. Further, the TGI with SK-OV-3 ovarian, in the experiment on OVCAR-8 ovarian, with SW-620 colon and in the experiment on COLO 205 colon was > 100 µM throughout.
Take `CN=C1SC(=Nc2ccc(N(C)C)cc2)N1C`: the TGI with RPMI-8226 leukemia, with SF-268 CNS, in the experiment with HCT-116 colon, in the experiment on KM12 colon, in the experiment with HT29 colon and in the experiment on LOX IMVI melanoma was > 100 µM each time. The TGI in the experiment with SK-OV-3 ovarian is 67 µM; with OVCAR-8 ovarian, > 100 µM; in the experiment with SW-620 colon, > 100 µM; in the experiment with COLO 205 colon, > 100 µM.
Take `O=C(OC[C@H]1O[C@@H](OC(=O)c2cc(O)c(O)c(O)c2)[C@H](OC(=O)c2cc(O)c(O)c(O)c2)[C@@H](OC(=O)c2cc(O)c(O)c(O)c2)[C@@H]1OC(=O)c1cc(O)c(O)c(O)c1)c1cc(O)c(O)c(O)c1`: the TGI in the experiment on RPMI-8226 leukemia is > 100 µM; with SF-268 CNS, 33.7 µM; with HCT-116 colon it was 16.8 µM; in the experiment with KM12 colon, 6.65 µM; in the experiment with HT29 colon, 73.7 µM; in the experiment on LOX IMVI melanoma it was 4.41 µM. The TGI in the experiment on SK-OV-3 ovarian was > 100 µM; in the experiment with OVCAR-8 ovarian it was 24.9 µM; with SW-620 colon it was > 100 µM; in the experiment with COLO 205 colon, 46.3 µM.
In the case of `CN(C)C(=O)O[C@@H]1CN[C@@H](C#Cc2cc3ncnc(Nc4ccc(OCc5cccc(F)c5)c(Cl)c4)c3s2)C1`, the GI50 is 7.18 µM in the experiment with RPMI-8226 leukemia; 14.5 µM in the experiment on SF-268 CNS; > 25 µM with HCT-116 colon; 9.85 µM in the experiment with KM12 colon; > 25 µM in the experiment on HT29 colon; > 25 µM in the experiment with LOX IMVI melanoma. The GI50 was 0.406 µM in the experiment on SK-OV-3 ovarian, 18.7 µM in the experiment with OVCAR-8 ovarian, > 25 µM with SW-620 colon and > 25 µM in the experiment on COLO 205 colon. The TGI in the experiment on RPMI-8226 leukemia, in the experiment with SF-268 CNS, in the experiment on HCT-116 colon, in the experiment with KM12 colon, with HT29 colon and in the experiment on LOX IMVI melanoma was > 25 µM throughout. The TGI in the experiment with SK-OV-3 ovarian, with OVCAR-8 ovarian, in the experiment on SW-620 colon and in the experiment with COLO 205 colon was > 25 µM each time.
`CCN(CCNc1ccc(C)c2sc3ccccc3c(=O)c12)CC(C)(C)O`: the GI50 with RPMI-8226 leukemia was 2.11 µM; in the experiment on SF-268 CNS, 14.9 µM; in the experiment with HCT-116 colon it was 6.62 µM; in the experiment with KM12 colon it was 4.23 µM; in the experiment on HT29 colon, 2.68 µM; in the experiment with LOX IMVI melanoma, 6.14 µM. Further, the GI50 in the experiment with SK-OV-3 ovarian is 11.1 µM; in the experiment on OVCAR-8 ovarian, 17.8 µM; with SW-620 colon it was 4.63 µM; with COLO 205 colon, 3 µM. In addition, the TGI with RPMI-8226 leukemia is 8.04 µM; in the experiment with SF-268 CNS, 32.2 µM; in the experiment on HCT-116 colon it was 22.6 µM; with KM12 colon it was 14.1 µM; with HT29 colon, 7.84 µM; in the experiment with LOX IMVI melanoma, 18.9 µM. Besides, the TGI in the experiment on SK-OV-3 ovarian was 27 µM; in the experiment with OVCAR-8 ovarian it was > 71.6 µM; in the experiment with SW-620 colon, 15.8 µM; in the experiment with COLO 205 colon, 13.2 µM.
On to `COc1ccc(CN2c3ccccc3CCc3ccccc32)cc1F`, for which the GI50 with RPMI-8226 leukemia was 0.644 µM; in the experiment with SF-268 CNS, 0.66 µM; in the experiment with HCT-116 colon, 0.413 µM; with KM12 colon it was 0.387 µM; with HT29 colon, 0.32 µM; in the experiment on LOX IMVI melanoma, 0.725 µM. Also, the GI50 in the experiment on SK-OV-3 ovarian was 0.471 µM; in the experiment with OVCAR-8 ovarian, 0.88 µM; in the experiment with SW-620 colon it was 0.386 µM; in the experiment with COLO 205 colon, 0.335 µM. Besides, the TGI in the experiment with RPMI-8226 leukemia was > 100 µM; in the experiment on SF-268 CNS it was > 100 µM; in the experiment with HCT-116 colon, > 100 µM; with KM12 colon, > 100 µM; in the experiment on HT29 colon, 1.9 µM; in the experiment with LOX IMVI melanoma, > 100 µM. The TGI is > 100 µM in the experiment with SK-OV-3 ovarian, > 100 µM with OVCAR-8 ovarian, > 100 µM with SW-620 colon and 1.39 µM in the experiment on COLO 205 colon.
Turning to `C1=CC=C2NCCOCCNC3=CC=CC=CC3=NCCOCCN=C2C=C1`, the TGI was > 100 µM in the experiment on RPMI-8226 leukemia; > 100 µM in the experiment on SF-268 CNS; > 100 µM with HCT-116 colon; > 100 µM in the experiment on KM12 colon; 62.6 µM with HT29 colon; > 100 µM in the experiment with LOX IMVI melanoma. The TGI in the experiment with SK-OV-3 ovarian, in the experiment on OVCAR-8 ovarian, in the experiment with SW-620 colon and with COLO 205 colon was > 100 µM in each case.
For `COc1cc(S(C)(=O)=O)ccc1Nc1nc2ccc(-c3ccc(NC(=O)[C@H](C)c4ccc(F)cc4)cc3)cn2n1`, the GI50 was 0.847 µM in the experiment with RPMI-8226 leukemia; > 100 µM in the experiment with SF-268 CNS; 0.0828 µM in the experiment on HCT-116 colon; > 72.4 µM in the experiment with KM12 colon; 10.6 µM in the experiment with LOX IMVI melanoma; > 100 µM with SK-OV-3 ovarian. For the same compound, the GI50 is 9.36 µM in the experiment on OVCAR-8 ovarian, 17.1 µM in the experiment on SW-620 colon and 0.0838 µM in the experiment with COLO 205 colon. The TGI in the experiment on RPMI-8226 leukemia, with SF-268 CNS, with HCT-116 colon, in the experiment on KM12 colon, in the experiment on HT29 colon and in the experiment with LOX IMVI melanoma was > 100 µM in each case. The TGI in the experiment with SK-OV-3 ovarian, in the experiment on OVCAR-8 ovarian, in the experiment with SW-620 colon and in the experiment on COLO 205 colon was > 100 µM throughout.
Consider `CCC(c1cccc(O)c1)C(CC)c1cccc(O)c1` (centres undefined), for which the GI50 in the experiment with RPMI-8226 leukemia was 2.05 µM; in the experiment on SF-268 CNS, 5.18 µM; with HCT-116 colon, 3.66 µM; in the experiment on KM12 colon it was 3.03 µM; in the experiment with HT29 colon, 1.86 µM; in the experiment with LOX IMVI melanoma, 4.07 µM. Moreover, the GI50 with SK-OV-3 ovarian is 2.76 µM; in the experiment with OVCAR-8 ovarian, 12.8 µM; in the experiment on SW-620 colon it was 4.44 µM; in the experiment on COLO 205 colon, 2.05 µM. The TGI in the experiment on RPMI-8226 leukemia was determined as 7.73 µM; in the experiment on SF-268 CNS it was 20.3 µM; with HCT-116 colon it was 14.5 µM; in the experiment with KM12 colon, 13.6 µM; in the experiment with HT29 colon, 11.2 µM; in the experiment on LOX IMVI melanoma it was 16.9 µM. The TGI amounted to 11.1 µM in the experiment with SK-OV-3 ovarian, 35.2 µM with OVCAR-8 ovarian, 16.4 µM in the experiment with SW-620 colon and 5.41 µM in the experiment with COLO 205 colon.
